The record followed here is ChEMBL document CHEMBL5214884, “Recent research progress of Uncaria spp. based on alkaloids: phytochemistry, pharmacology and structural chemistry” (Eur J Med Chem, 2021).

One experiment concerns RAW264.7. As to the kind of experiment: Inhibition of LPS-induced NO release in mouse RAW264.7 cells preincubated for 2 hrs followed by LPS addition measured after 24 hrs. In kind it is functional, cell-based.
Experiment [1] addresses T1, Melatonin receptor type 1A (Homo sapiens, UniProt P48039). Put plainly: Agonist activity at human MT1R stably expressed in HEK293 cells at 1 mM by FlexStation3 Bench-top MultiMode Microplate Reader relative to control. It counts as functional, cell-based. Conditions: filed as agonist.
Experiment [2] addresses T2, Melatonin receptor type 1B (Homo sapiens) (UniProt P49286).
T2 sequence (whole entry): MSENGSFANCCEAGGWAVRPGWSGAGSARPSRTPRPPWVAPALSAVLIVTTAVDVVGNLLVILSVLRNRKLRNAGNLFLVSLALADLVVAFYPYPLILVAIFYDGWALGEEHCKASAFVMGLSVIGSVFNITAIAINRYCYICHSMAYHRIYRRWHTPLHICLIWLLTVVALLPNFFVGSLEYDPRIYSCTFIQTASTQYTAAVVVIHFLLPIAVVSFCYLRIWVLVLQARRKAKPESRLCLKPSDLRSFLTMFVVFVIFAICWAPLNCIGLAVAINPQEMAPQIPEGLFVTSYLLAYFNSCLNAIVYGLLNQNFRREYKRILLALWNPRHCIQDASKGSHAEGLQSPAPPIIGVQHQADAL
As to the kind of experiment: Agonist activity at human MT2R stably expressed in HEK293 cells at 1 mM by FlexStation3 Bench-top MultiMode Microplate Reader relative to control. Particulars: filed as agonist. It counts as functional, cell-based.

A short description of experiment [3]: Inhibition of alpha glucosidase (unknown origin) using p-nitrophenyl-a-D-glucopyranoside as substrate incubated for 20 mins by UV based microplate reading method. More on the design: species or system Homo sapiens.
A short description of experiment [4]: Inhibition of human carboxylesterase using 4-benzoyl-N-butyl-1,8-naphthalimide as substrate by fluorescence based assay.
Experiment [5] in a line: Inhibition of alpha glucosidase (unknown origin) using p-nitrophenyl alpha-D-glucoside as substrate preincubated for 60 mins followed by substrate addition measured after 30 mins by spectrophotometric analysis. Also noted: species or system Homo sapiens.
The target of experiment [6] is T3, Acetylcholinesterase (Homo sapiens, UniProt P22303). Put plainly: Inhibition of AChE (unknown origin) using acetylcholine as substrate by BioTek Synergy HT microplate reader method.
T3 sequence (P22303 whole entry): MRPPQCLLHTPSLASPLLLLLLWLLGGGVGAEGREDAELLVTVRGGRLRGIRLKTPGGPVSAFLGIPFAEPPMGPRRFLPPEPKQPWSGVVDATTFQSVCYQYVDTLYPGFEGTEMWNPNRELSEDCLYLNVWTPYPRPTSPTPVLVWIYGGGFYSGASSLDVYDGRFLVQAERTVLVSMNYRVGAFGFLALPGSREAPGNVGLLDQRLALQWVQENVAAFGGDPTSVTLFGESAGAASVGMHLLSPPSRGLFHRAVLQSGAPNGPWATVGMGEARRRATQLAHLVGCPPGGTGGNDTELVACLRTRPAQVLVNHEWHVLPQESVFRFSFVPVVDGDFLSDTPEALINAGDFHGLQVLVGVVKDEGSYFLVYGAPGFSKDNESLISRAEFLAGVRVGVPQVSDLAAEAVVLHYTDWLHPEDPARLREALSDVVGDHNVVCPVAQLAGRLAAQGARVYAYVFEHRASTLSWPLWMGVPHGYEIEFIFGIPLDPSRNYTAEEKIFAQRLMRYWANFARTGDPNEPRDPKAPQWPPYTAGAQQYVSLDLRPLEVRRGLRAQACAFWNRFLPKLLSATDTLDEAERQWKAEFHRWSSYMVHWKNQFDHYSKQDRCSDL
Experiment [7] is filed under the species Mus musculus. As to the kind of experiment: Antiinflammatory activity against Balb/c mouse serum assessed as inhibition of IL-1alpha release measured after 2 hrs by cytokine Elisa multiplex Q-plex system method relative to control. It counts as functional. More on the design: scale not given: the % may be the effect or the level left.
Experiment [8] is filed under the species Mus musculus. Put plainly: Antiinflammatory activity against Balb/c mouse serum assessed as inhibition of IL-1beta release measured after 2 hrs by cytokine Elisa multiplex Q-plex system method relative to control. It counts as functional. Also noted: scale not given: the % may be the effect or the level left.
Experiment [9] is filed under the species Mus musculus. As to the kind of experiment: Antiinflammatory activity against Balb/c mouse serum assessed as inhibition of IL-17 release measured after 2 hrs by cytokine Elisa multiplex Q-plex system method relative to control. It counts as functional. More on the design: scale not given: the % may be the effect or the level left.
For experiment [10], the species on record is Mus musculus. Put plainly: Antiinflammatory activity against Balb/c mouse serum assessed as inhibition of TNF-alpha release measured after 2 hrs by cytokine Elisa multiplex Q-plex system method relative to control. More on the design: scale not given: the % may be the effect or the level left. It counts as functional.
The species entered for experiment [11] is Mus musculus. As to the kind of experiment: Antiinflammatory activity against Balb/c mouse serum assessed as reduction of IL-4 release measured after 2 hrs by cytokine Elisa multiplex Q-plex system method relative to control. In kind it is functional. More on the design: scale not given: the % may be the effect or the level left.
The subject of experiment [12] is PC-12. Put plainly: Neuroprotective activity against mNGF-differentiated rat PC-12 cells assessed as inhibition of caspase 3. It counts as functional, cell-based.
In experiment [13] the test system is PC-12. Put plainly: Neuroprotective activity against mNGF-differentiated rat PC-12 cells assessed as inhibition of caspase 9. It counts as functional, cell-based.
Experiment [14] in a line: Inhibition of LPS-induced NO release in mouse N9 microglial cells measured after 48 hrs by Griess reaction assay. Conditions: N9, 48 h. It counts as functional, cell-based. Background: Griess reagent forms a coloured azo dye with nitrite.
Experiment [15] concerns the target T3, Acetylcholinesterase. As to the kind of experiment: Inhibition of AChE (unknown origin) incubated for 20 mins by Ellman's method. Background: In Ellman's method for cholinesterases, released thiocholine reacts with DTNB.
In experiment [16] the target is T1, Melatonin receptor type 1A. Put plainly: Agonist activity at human MT1R stably expressed in HEK293 cells by FlexStation3 Bench-top MultiMode Microplate Reader. It counts as functional, cell-based.
In experiment [17] the target is T4, Melatonin receptor type 1B (Homo sapiens, UniProt P49286).
T4 sequence (P49286 whole entry): T2 sequence (whole entry)
As to the kind of experiment: Agonist activity at human MT2R stably expressed in HEK293 cells by FlexStation3 Bench-top MultiMode Microplate Reader. It counts as functional, cell-based.

The test system of another experiment is Rattus norvegicus. Put plainly: Hypotensive effect against Phe-induced contraction in rat mesentric arteries assessed as relaxation effect […]. In kind it is functional.

T1 sequence (P48039 whole entry): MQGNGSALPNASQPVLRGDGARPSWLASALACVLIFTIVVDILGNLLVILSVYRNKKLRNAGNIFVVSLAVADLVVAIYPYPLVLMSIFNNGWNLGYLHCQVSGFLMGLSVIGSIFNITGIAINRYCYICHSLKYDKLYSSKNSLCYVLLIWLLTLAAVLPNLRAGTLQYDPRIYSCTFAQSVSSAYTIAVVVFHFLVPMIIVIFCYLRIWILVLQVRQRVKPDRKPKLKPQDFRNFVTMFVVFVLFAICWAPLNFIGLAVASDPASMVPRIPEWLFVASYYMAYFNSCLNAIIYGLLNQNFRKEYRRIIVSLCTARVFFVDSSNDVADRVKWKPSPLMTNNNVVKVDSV

For orientation: IC50 means the concentration that gives 50% inhibition. `C=C1CC[C@]2(C(=O)O)CC[C@]3(C)C(=CC[C@@H]4[C@@]5(C)CC[C@H](O)C(C)(C)[C@@H]5[C@H](O)C[C@]43C)[C@@H]2[C@]1(C)O` showed an IC50 in the experiment on RAW264.7 of 1.48 µM.

As for `C=C[C@H]1[C@H](O[C@@H]2O[C@H](CO)[C@@H](O)[C@H](O)[C@@H]2O[C@@H]2O[C@H](CO[C@@H]3O[C@H](CO)[C@@H](O)[C@H](O)[C@H]3O)[C@@H](O)[C@H](O)[C@H]2O)OC=C2C(=O)N3CCc4c([nH]c5cc(O)ccc45)[C@H]3C[C@H]21`, the results for the Activity in experiment [1] and in [2] were 79.6% and 46.3%, respectively.

`Cc1cc2c(cc1O)OC1(CC1)C(O)C2` (stereo unspecified) gave an IC50 in experiment [3] of 15.5 µM.

The compound `C[C@H]1[C@H](C)CC[C@]2(C(=O)O)CC[C@]3(C)C(=CC[C@@H]4[C@@]5(C)CC[C@H](O)C(C)(C)[C@@H]5[C@H](O)C[C@]43C)[C@H]12` had an IC50 in experiment [4] of 4.01 µM.

In experiment [5], `COCC1=C(C)[C@H]2C3=CC[C@@H]4[C@@]5(C)CC[C@H](O)C(C)(C)[C@@H]5C(=O)C[C@@]4(C)[C@]3(C)CC[C@@]2(C(=O)O)CC1` showed an IC50 of 49 µM.

In the case of `C/C=C1\CN2CCc3c([nH]c4ccccc34)[C@@H]2C[C@@H]1/C(=C\OC)C(=O)OC`, at Acetylcholinesterase [6], the IC50 was 63.9 µM.

`Oc1cc(O)c2c(c1)O[C@H](c1ccc(O)c(O)c1)[C@@H](O)[C@@H]2c1c(O)cc(O)c2c1O[C@H](c1ccc(O)c(O)c1)[C@@H](O)C2`: in experiment [3], the midpoint of inhibition, the IC50, lay at 17.3 µM.

Regarding `C[C@H]1[C@H](C)CC[C@]2(C(=O)O)CC[C@]3(C(=O)/C=C/c4ccc(O)cc4)C(=CC[C@@H]4[C@@]5(C)CC[C@H](O)C(C)(C)[C@@H]5CC[C@]43C)[C@H]12`, in the experiment with RAW264.7, half-maximal inhibition (IC50) was put at 7.01 µM.

On to `COC(=O)C1=CO[C@@H](C)[C@H]2CN3CC[C@]4(C(=O)Nc5ccccc54)[C@@H]3CC12` (stereo partly specified), for which the Activity in the experiment filed under Mus musculus [7] amounted to 50%; in the experiment listed under Mus musculus [8] it was 50%; in the experiment listed under Mus musculus [9], 50%; in the experiment filed under Mus musculus [10] it was 50%; in the experiment filed under Mus musculus [11] it was 40%.

As for `C=C[C@H]1[C@H](O[C@@H]2O[C@H](CO)[C@@H](O)[C@H](O)[C@H]2O)OC=C(C(=O)OC)[C@H]1C[C@@H]1N[C@H](C(=O)O)Cc2c1[nH]c1ccccc21`, the results for the IC50 in the experiment with PC-12 [12] and with PC-12 [13] were 25.6 µM and 24.5 µM, respectively.

The compound `CC1(C)CC[C@]2(C(=O)O)CC[C@]3(C)C(=CC[C@@H]4[C@@]5(C)CC[C@H](O)C(C)(C)[C@@H]5CC[C@]43C)[C@@H]2C1` [OLEANOLIC_ACID] returned an IC50 in experiment [4] of 4.01 µM.

Consider `C=C[C@@H]1C(C[C@@H]2NCCc3c2[nH]c2ccccc32)C(C(=O)OC)=CO[C@H]1O[C@@H]1O[C@H](CO)[C@@H](O)[C@H](O)[C@H]1O` (stereo partly specified), for which the IC50 in [14] turned out to be 8.3 µM.

`CO[C@H]1C=C2[C@@H]3C[C@H](C)CC[C@]3(C(=O)O)CC[C@@]2(C)[C@]2(C)CC[C@H]3C(C)(C)[C@@H](O)CC[C@]3(C)[C@@H]12`: in experiment [4], the IC50 came to 4.01 µM.

`C=C[C@H]1COC(=O)C2=CN3CCc4c([nH]c5cccc(O[C@@H]6O[C@H](CO)[C@@H](O)[C@H](O)[C@H]6O)c45)[C@@H]3C[C@H]21` showed an IC50 against Acetylcholinesterase [15] of 21.1 µM.

In experiment [3], `O=C1CC[C@H](Cc2ccc(O)c(O)c2)O1` gave a half-inhibitory concentration (IC50) of 27 µM.

On to `C[C@H]1[C@H](C)CC[C@]2(C(=O)O)CC[C@]3(C)C(=CC[C@@H]4[C@@]5(C)CC[C@H](O)C(C)(C)[C@@H]5CC[C@]43C)[C@H]12` [URSOLIC ACID], for which the results for the IC50 in experiment [4] and in experiment [5] were 4.01 µM and 16 µM, respectively.

As a reminder, the EC50 is the concentration that produces a half-maximal response. `Oc1cc(O)c2c(c1)O[C@H](c1ccc(O)c(O)c1)[C@@H](O)C2` [CIANIDANOL]: the EC50 in experiment [16] worked out at 25.8 µM; in [17], 47.3 µM.

With `CC[C@H]1CN2CCc3c([nH]c4ccccc34)[C@H]2C[C@H]1/C(=C\OC)C(=O)OC`, the IC50 with Rattus norvegicus was determined as 0.18 µM.
